Reference: PMC6216040, “Repurposing of an old drug: In vitro and in vivo efficacies of buparvaquone against Echinococcus multilocularis” (International Journal for Parasitology: Drugs and Drug …, 2018)
Read-outs that look alike come from different tables or passages of the source.

System: E. multilocularis metacestodes
Assay: PGI-assay: drug-induced damage on in vitro cultured metacestodes (Pathogen Box screening cascade and EC50)
Type: cell-based, Echinococcus multilocularis
Details: for cytotoxicity at 10 µM: Echinococcus multilocularis; for cytotoxicity at 10 µM / PGI release, % of the Tx-100 control, 5d / PGI release, % of the Tx-100 control, 12d: singlets, 10 µM
[1] = 120 h, 5 days of incubation, read-out: PGI release, % of the Tx-100 control, 5d
[2] = 288 h, 12 days of incubation, read-out: PGI release, % of the Tx-100 control, 12d
[3] = confirmatory screening at 10 µM in triplicates, 5 days of incubation, values as % of Tx-100 control
[4] = confirmatory screening at 10 µM in triplicates, 12 days of incubation, values as % of Tx-100 control

| Compound | PGI release, % of the Tx-100 control, 5d (5 days of incubation) | PGI release, % of the Tx-100 control, 12d (12 days of incubation) | also measured |
| --- | --- | --- | --- |
| C[C@H]1c2cccc(O)c2C(=O)C2=C(O)[C@]3(O)C(=O)C(C(N)=O)=C(O)[C@@H](N(C)C)[C@@H]3[C@@H](O)[C@@H]21 [MMV000011, Doxycycline, reference compound] |  |  | cytotoxicity at 10 µM [1]: 3.26%; cytotoxicity at 10 µM [2]: -0.0343% |
| COc1cc(NC(C)CCCN)c2ncccc2c1 (stereo not drawn) [MMV000023, Primaquine, reference compound] |  |  | cytotoxicity at 10 µM [1]: -0.23%; cytotoxicity at 10 µM [2]: 17.6% |
| CCN(CC)CCCCCCNc1cc(OC)cc2c(C)ccnc12 [MMV000063, Sitamaquine, reference compound] |  |  | cytotoxicity at 10 µM [1]: -0.0141%; cytotoxicity at 10 µM [2]: 10.8% |
| O=S(=O)(c1ccc(Cl)cc1)N1CCN(C(=S)NCc2ccco2)CC1 [MMV000858] | -0.26% | 2.40% |  |
| COc1cccc2c(C)nc(N=C(N)N)nc12 [MMV000907] | -2.91% | 1.72% |  |
| CCCS(=O)(=O)N1CCC(CO)(Cc2ccccc2C(F)(F)F)CC1 [MMV001059] | 1.56% | 1.44% |  |
| COC(=O)C1=C(C)NC(C)=C(C(=O)OC(C)C)C1c1cccc2nonc12 (stereo not drawn) [MMV001493, Isradipine, reference compound] |  |  | cytotoxicity at 10 µM [1]: 0.84%; cytotoxicity at 10 µM [2]: 0.0436% |
| CC1CS(=O)(=O)CCN1/N=C/c1ccc([N+](=O)[O-])o1 (stereo not drawn) [MMV001499, Nifurtimox, reference compound] |  |  | cytotoxicity at 10 µM [1]: 2.54%; cytotoxicity at 10 µM [2]: 3.97% |
| CNCCC(Oc1ccc(C(F)(F)F)cc1)c1ccccc1 (stereo not drawn) [MMV001561, Fluoxetine, reference compound] |  |  | cytotoxicity at 10 µM [1]: -1.25%; cytotoxicity at 10 µM [2]: -5.98% |
| O=C(C1CCCCC1)N1CC(=O)N2CCc3ccccc3C2C1 (stereo not drawn) [MMV002529, Praziquantel, reference compound] |  |  | cytotoxicity at 10 µM [1]: -0.87%; cytotoxicity at 10 µM [2]: -0.49% |
| CCN(CC)C(=O)N1CCN(C)CC1 [MMV002816, Diethylcarbamazine, reference compound] |  |  | cytotoxicity at 10 µM [1]: -0.92%; cytotoxicity at 10 µM [2]: -1.56% |
| Oc1c(I)cc(I)c2cccnc12 [MMV002817, Diiodohydroxyquinoline, reference compound] |  |  | cytotoxicity at 10 µM [1]: -1.42%; cytotoxicity at 10 µM [2]: -0.41% |
| CN1CCCN(C(c2ccccc2)c2ccc(Cl)cc2)CC1 (stereo not drawn) [MMV004168] | -0.40% | 76.56% | PGI release, % of Tx-100 control, average, 5d [3]: -1.18%; PGI release, % of Tx-100 control, average, 12d [4]: 4.34% |
| O=C1Nc2ccc(Br)cc2C12NCCc1c2[nH]c2ccccc12 (stereo not drawn) [MMV006239] | 0.78% | 2.27% |  |
| Cc1ccc2[nH]c3c(NCCN(C)C)ncnc3c2c1 [MMV006372] | 0.48% | -0.11% |  |
| COc1cc2ncnc(NC3CCN(Cc4ccccc4)CC3)c2cc1OC [MMV006741] | -1.05% | 0.30% |  |
| Cc1cc(Cl)c(S(=O)(=O)N2CCCC2)cc1OCC(=O)NC1CCCCC1 [MMV006833] | 0.0374% | -0.28% |  |
| CN(C)c1cc(NC(=O)Nc2ccccc2)c2ccccc2n1 [MMV006901] | 13.97% | 19.56% |  |
| Cc1cc(NC(=O)c2ccc(S(=O)(=O)N(Cc3ccccc3)C(C)C)cc2)no1 [MMV007133] | -0.95% | 0.46% |  |
| COc1cc(OC)cc(C(=O)NCC2Cc3cc(Cl)cc(-c4ccncc4)c3O2)c1 (stereo not drawn) [MMV007471] | 1.94% | 7.77% |  |

| Compound | PGI release, % of the Tx-100 control, 5d (5 days of incubation) | PGI release, % of the Tx-100 control, 12d (12 days of incubation) | also measured |
| --- | --- | --- | --- |
| Cc1cc(C)n(-c2ccc(NC(=O)C3CCN(Cc4cnc(C)s4)CC3)cc2)n1 [MMV007625] | 0.65% | 25.58% | PGI release, % of Tx-100 control, average, 5d [3]: -1.00%; PGI release, % of Tx-100 control, average, 12d [4]: -1.56% |
| CCOc1ccc(-c2nc(NC(=O)CS(=O)(=O)c3ccccc3)sc2C)cc1 [MMV007638] | -0.28% | 0.13% |  |
| O=C(NC1CC1)c1ccc(CSCc2ccccc2Cl)o1 [MMV007803] | -0.54% | -0.13% |  |
| Nc1ccc(C(=O)Nc2ccc(-c3nc4ccccc4o3)cc2)cc1 [MMV007920] | 0.08% | -0.69% |  |
| COc1ccc(CN2CCOc3ccc(C(C)(O)CN(C)C)cc3C2)cc1C (stereo not drawn) [MMV008439] | -0.31% | -1.11% |  |
| Cc1cc(C(=O)Nc2cnn(Cc3ccc(Cl)cc3Cl)c2)no1 [MMV009054] | -0.80% | -0.25% |  |
| O=C(C1CCN(c2nnnn2-c2ccccc2)CC1)N1CCc2ccccc2C1 [MMV009135] | -0.49% | -1.30% |  |
| COc1ccc(-c2cnc3ccc(NCc4ccc(S(N)(=O)=O)cc4)nn23)cn1 [MMV010545] | -0.28% | -0.35% |  |
| COc1cc(-c2cc(-c3ccc(S(C)(=O)=O)cc3)cnc2N)ccc1O [MMV010576] | -0.22% | -2.40% |  |
| c1csc(-c2cnc3sc(NCC4CCOCC4)nn23)c1 [MMV010764] | -0.61% | -4.41% |  |
| Cc1cc(Nc2ccc(C(F)(F)F)cc2)n2ccnc2n1 [MMV011229] | -0.86% | -1.35% |  |
| COc1ccc(CCN2CCC(NCc3cccc(N(C)C)c3)CC2)cc1 [MMV011511] | 1.21% | 4.25% |  |
| NCC(=O)N1CCn2c(nc(-c3ccccc3)c2Nc2ccc3c(c2)OCO3)C1 [MMV011691] | 1.25% | 2.05% |  |
| FC(F)(F)c1cnc(Sc2nnc(-c3ccncc3)o2)c(Cl)c1 [MMV011765] | 0.33% | 0.66% |  |
| Cc1ccc(NC(=O)c2nc[nH]c2C(=O)Nc2nc3ccccc3[nH]2)c(C)c1 [MMV011903] | 41.66% | 94.00% | PGI release, % of Tx-100 control, average, 5d (1 µM, triplicates, 5 days of incubation): -2.96%; PGI release, % of Tx-100 control, average, 12d (1 µM, triplicates, 12 days of incubation): -9.52%; activity in the screen at 10 μM (confirmed in triplicates, >20% relative PGI release) (10 μM, 5 and 12 days): active; PGI release, % of Tx-100 control, average, 5d [3]: 4.49%; PGI release, % of Tx-100 control, average, 12d [4]: 34.00% |
| Cc1nc2ccccn2c1C(=O)NCc1ccc(Cl)cc1 [MMV012074] | 0.39% | -0.51% |  |
| Cc1cc(Nc2ccncc2)n2nc(C)c(-c3ccccc3Cl)c2n1 [MMV016136] | 0.97% | 2.16% |  |
| Cc1ccc(-c2cc(C(=O)Nc3cccnc3)c3cc(Br)ccc3n2)cc1 [MMV016838] | -0.19% | -0.0545% |  |
| Cc1cc(C)n2nc(C(=O)Nc3cc(C(F)(F)F)ccc3N3CCOCC3)nc2n1 [MMV019087] | -0.91% | -0.17% |  |
